Assay [1] deals with human fetal lung fibroblasts IMR-90. It is filed as cell-based. The method, then: DICAM’s cytotoxicity was determined employing a modified MTT assay as described elsewhere ([Antúnez-Mojica et al., 2016]) using human lung carcinoma epithelial cells A549, human fetal lung fibroblasts IMR-90, and human HeLa cervix carcinoma cells treated with increasing concentrations of DICAMs (0.8–200 µM range). A549 cells were grown in RPMI 1640 (Gibco; Fisher Scientific, Spain) supplemented with 10% FCS, 2 mM glutamine, 100 IU/mL penicillin and 100 μg/mL streptomycin. IMR-90 and HeLa cells were cultured in DMEM (Gibco; Fisher Scientific, Spain) supplemented with 10% FCS, 2 mM L-glutamine, 1 mM pyruvate, […] penicillin, 100 μg/mL streptomycin and 40 μg/mL gentamycin. Cell viability was assessed after 48 h exposure to DICAMs. Vinblastine was used as a positive control. IC50 value is the concentration that gives 50% inhibition of cell growth and was determined using SigmaPlot (Systat) fitting to a Four Parameter Logistic curve.

In a further assay the test system is Staphylococcus aureus T. In words: Growth inhibition screening of planktonic cultures (OD550/600). To be noted: S. aureus T, 50 and 100 μM compound added at T1, OD550/600 followed 10 h, 37°C. Also on record: key: (+++) full inhibition; (++) partial inhibition; (+) growth retardation; -: (−) no effect. It is filed as cell-based. The method in brief: (§1)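 Early exponential-phase cultures (OD550/600 c. a. 0.15–0.2) were treated with DICAMs at 50 and 100 μM final, diluted from DMSO stocks into medium, and incubated 10 h at 37°C. Turbidity (OD550/600) was read every 20 min against untreated controls to track growth inhibition and lysis.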

The next assay concerns Escherichia coli DH10B. The description is as above. It is filed as cell-based. Also on record: key: (+++) full inhibition; (++) partial inhibition; (+) growth retardation; -: (−) no effect. As to conditions: E. coli DH10B, 50 and 100 μM compound added at T1, OD550/600 followed 10 h, 37°C. The method in brief: as §1
In a further assay the test system is S. pyogenes T. The assay is described as follows: Dose dependence of bacterial viability (CFU counting, Hill fit). It is filed as cell-based, Streptococcus pyogenes. To be noted: for SC (stationary concentration, Δlog = 0), S. pyogenes T / EC50 / Δlogmax, S. pyogenes T: 2 h treatment, 37°C, Hill fit; for SC (stationary concentration, Δlog = 0), S. pyogenes T: BHI medium, added at T1, 10^7–10^8 CFU/mL, CFU vs untreated controls; for EC50 / Δlogmax, S. pyogenes T: BHI; for EC50: read-out: K 1/2 (concentration yielding half-variation in Δlogmax), S. pyogenes T (converted); for Δlogmax, S. pyogenes T: maximum variation in viability. The text has this: First, the substitution of the fatty amino chain of 18 carbon atoms of the reference compound DICAM 2 by either an OMe group (methylated tripeptide DICAM 5) or an amine with 12 carbon atoms (DICAM 9) abolished the activity against all three pathogens. However, the activity remained intact when the chain of the fatty amine of prototypes DICAMs 1 and 4 was two carbon atoms shorter (DICAM 10 and DICAM 12, respectively), based on S. pneumoniae and S. pyogenes results. […] Third, Glu and Ala were tolerated as C-terminal residues of the lipotripeptides. […] In addition, deletion of the C-terminal Glu (DICAM 13) eradicated the activity against S. pneumoniae and S. aureus. However, a delay and small inhibition of S. pyogenes ^T growth was still observed. Fourth, Glu (DICAMs 19 and 20) and Orn (DICAMs 21 and 22) were tolerated as N-terminal residues, with the impact of these modifications being pathogen-dependent. […] SAR studies continued by measuring the dose dependence of DICAM’s activity at T1 with all the compounds found to be active against S. pyogenes or S. aureus in the initial screening, and all but one compound in the case of S. pneumoniae. The OD values of bacterial cultures were monitored after DICAM addition, and the decrease in the number of viable bacteria was measured relative to controls (Figures 4–6; Supplementary Figure S1). As antibacterial efficacy may decline with the bacterium dose in the inoculum ([Belley et al., 2009]; [Udekwu et al., 2009]; [Luca et al., 2013]), the assays were performed using the bacterial concentrations necessary for the fluorescence experiments in Section 2.3 (10^7–10^8 CFU/mL). At these high bacterial densities, MICs were determined as the DICAM concentration at which bacteria neither grow nor are killed (the stationary concentration (SC)), following [Udekwu et al., 2009]. By fitting the logarithmic plot of cell viability decrease vs. the DICAM dose to a Hill function (see Section 5.2.3.1) we were able to determine the maximum variation in viability (Δlogmax = ∆log f - ∆log 0, where ∆log f and ∆log 0 are the upper and lower limits of Δlog) in the assay conditions, the SC concentration (Δlog = 0), the dose required for half-variation in Δlogmax (K 1/2), and the cooperativity of the antimicrobial effect (N H).
(§2) Susceptibility to DICAMs was first tested by growth-inhibition assays at 50 and 100 μM of compound. Briefly, working solutions at 5 mM or 10 mM DICAM in pure DMSO were prepared from DICAM stocks (40 mM in pure DMSO) and diluted with fresh culture medium to 5× the desired final concentration. Aliquots (50 µL) of these solutions were added to 200 µL of bacterium cultures grown to early exponential phase (OD550/600 c. a. 0.15–0.2 in sterile 96-well plates (Cultek, Spain). Incubation continued for 10 h at 37°C and turbidity (OD550/600) values were measured every 20 min to monitor growth and lysis, using a VersaMax microplate reader (Molecular Devices; United Kingdom). Next, the activity dependence on DICAM’s dose was examined by measuring the turbidity of treated and untreated cultures as a function of time. Also, the decay of bacterial viability (CFU/mL) at selected times of treatment was assessed by colony counting on LB-agar or TSA plates after overnight incubation at 37°C. By default, 10 μL of 10-fold serially diluted samples were plated, which set the lower detection limit at 10^2 CFU/mL (10^1 CFU/mL when 100 μL of the undiluted sample was seeded).
As antibacterial efficacy may decline with the bacterium dose in the inoculum ([Belley et al., 2009]; [Udekwu et al., 2009]; [Luca et al., 2013]), activity assays were performed using the bacterial concentrations required for the fluorescence experiments in Section 2.3 (10^7–10^8 CFU/mL). At such bacterial densities, MICs were determined as the DICAM concentration at which bacteria neither grow nor are killed under assay conditions (the stationary concentration (SC)), as indicated in Section 2.2. […]

Assay [2] concerns Streptococcus pneumoniae R6. In words: Growth inhibition / lysis screening of planktonic cultures (OD550/600). It is filed as cell-based. Details: key: (+++) full inhibition; (++) partial inhibition; (+) growth retardation; -: (−) no effect. As to conditions: S. pneumoniae R6, 50 and 100 μM compound added at early logarithmic phase (T1), OD550/600 followed 10 h, 37°C. The method, then: Planktonic cultures of selected pathogens (S. pneumoniae R6, S. pyogenes ^T, Staphylococcus aureus ^T, Escherichia coli DH10B, and Pseudomonas aeruginosa PAO1 strains) on early logarithmic-phase (T1) were assayed for their sensitivity to a broad range of DICAM compounds, as indicated in Table 1. Their bacteriostatic or lytic effect was first tested by measuring the variation of the OD550/600 as a function of time (10 h) when (50/100 μM) DICAMs were added, compared to untreated controls. The screening results, summarized in Table 1, evidenced that a potent antimicrobial activity may exist even when the negative charge of the peptide was higher than in the prototype compounds.
as §2

Usually IC50 stands for the concentration needed to halve the response being measured.

“And” between values parts separate entries of the source, which are not always exact repeats. Equal entries are not always repeated. Structures can show the parent of a compound that is named as a salt. Where two headings read alike, the source gives them in different places.

Molecule `CCCCCCCCCCCCCCCCCCNC(=O)[C@H](C)NC(=O)[C@H]1CCCN1C(=O)[C@H](C)N` [DICAM 14, Ala- Pro -Ala-NH-C18H37 · HCl] yielded an IC50 in assay [1] (48 h) of 7.69 ± 0.06 µM. The “Growth halt or lysis (50/100 μM), Sa T” value with Staphylococcus aureus T is recorded as “+++”. Further, the “Growth halt or lysis (50/100 μM), Ec” value with Escherichia coli DH10B is listed as “-”. Further, in the assay on S. pyogenes T, the “SC (stationary concentration, Δlog = 0), S. pyogenes T” value came to 22 ± 10 µM; the EC50 was 41 ± 10 µM; the “Δlogmax, S. pyogenes T” value worked out at 3.7 ± 0.8 logarithmic units. The “Growth halt or lysis (50/100 μM), Spn” value in assay [2] is recorded as “+++”.
Consider `CCCCCCCCCCCCCCCCCCNC(=O)[C@H](CCC(=O)O)NC(=O)[C@H]1CCCN1C(=O)[C@H](CCC(=O)O)NC(=O)OCc1ccccc1` [DICAM 19, Cbz-Glu- Pro -Glu-NH-C18H37], for which, in assay [1] (48 h), the IC50 amounted to 44 ± 1 µM. The “Growth halt or lysis (50/100 μM), Sa T” value in the assay on Staphylococcus aureus T was “+”. The “Growth halt or lysis (50/100 μM), Ec” value in the assay on Escherichia coli DH10B is given as “-”. Moreover, in the assay with S. pyogenes T, the “SC (stationary concentration, Δlog = 0), S. pyogenes T” value was 4−5 µM and 3.8 ± 0.9 µM; the EC50 is 7.1 ± 0.8 µM; the “Δlogmax, S. pyogenes T” value amounted to 3.0 ± 0.2 logarithmic units. In the assay with S. pyogenes T (after 2 h of incubation at 3 × SC), the “Reduction of bacterial viability at 3 × SC, S. pyogenes T” value was 94.5%–99.9. For the same molecule, the “Growth halt or lysis (50/100 μM), Spn” value in assay [2] was “+++”.
For `CCCCCCCCCCCCCCCCCCNC(=O)[C@H](CCC(=O)O)NC(=O)[C@H]1CCCN1C(=O)[C@@H](N)CCC(=O)O` [DICAM 20, Glu- Pro -Glu-NH-C18H37 · HCl], the IC50 in assay [1] (48 h) came to 78.6 ± 0.1 µM. Besides, the “Growth halt or lysis (50/100 μM), Sa T” value in the assay with Staphylococcus aureus T is “++”. For the same molecule, the “Growth halt or lysis (50/100 μM), Ec” value in the assay on Escherichia coli DH10B is reported as “-”. In addition, in the assay with S. pyogenes T, the “SC (stationary concentration, Δlog = 0), S. pyogenes T” value was 8 ± 2 µM; the EC50 is 17 ± 4 µM; the “Δlogmax, S. pyogenes T” value is given as “∼3.0 logarithmic units”. In addition, in assay [2], the “Growth halt or lysis (50/100 μM), Spn” value is “+++”.
For the molecule `CCCCCCCCCCCCCCCCCCNC(=O)[C@H](CCC(=O)O)NC(=O)[C@H]1CCCN1C(=O)[C@@H](N)CCCN` [DICAM 22, Orn- Pro -Glu-NH-C18H37 · HCl], the IC50 in assay [1] (48 h) stood at 58 ± 0.4 µM. Moreover, the “Growth halt or lysis (50/100 μM), Sa T” value with Staphylococcus aureus T is “+”. In addition, the “Growth halt or lysis (50/100 μM), Ec” value in the assay with Escherichia coli DH10B is on record as “-”. In addition, the “Growth halt or lysis (50/100 μM), Spn” value in assay [2] is “+++”.
With “Ala - Pro -Glu-NH-C18H37 · HCl [DICAM 23]”, the IC50 in assay [1] (modified MTT, 48 h exposure, 0.8–200 µM, four parameter logistic fit, ± SD, at least three independent experiments, read-out: IC50 IMR-90) came out at 57 ± 2 µM. For the same molecule, the “Growth halt or lysis (50/100 μM), Sa T” value with Staphylococcus aureus T is “++”. Also, the “Growth halt or lysis (50/100 μM), Ec” value with Escherichia coli DH10B is given as “-”. For the same molecule, in assay [2], the “Growth halt or lysis (50/100 μM), Spn” value is “+++”.

Values taken from paper PMC11329928, “Design, synthesis and structure-activity relationship (SAR) studies of an unusual class of non-cationic fatty amine-tripeptide conjugates as novel synthetic antimicrobial agents” (Frontiers in Pharmacology, 2024).
